According to patent US11857560B2, “Pharmaceutical compositions comprising substituted nucleotides and nucleosides for treating viral infections” (priority 2013, dated 2024):
pEC50: −log10 of the molar value. Where two headings read alike, the source gives them in different places.

Columns and labels:
RVFV = test: microbe, parasite or virus in culture; format: cell-based; conditions: Rift Valley fever virus, read-out: RVFV EC50
SARS = test: microbe, parasite or virus in culture; conditions: Severe acute respiratory syndrome coronavirus, read-out: SARS EC50
Measles = test: Antiviral activity, Measles; format: cell-based, measles virus; conditions: Measles morbillivirus
Tacaribe Virus = test: microbe, parasite or virus in culture; format: cell-based; conditions: Mammarenavirus tacaribeense, read-out: Tacaribe Virus EC50
[1] = tested on: Influenza A H5N1 (low path); test: microbe, parasite or virus in culture; format: cell-based; conditions: H5N1, read-out: Influenza A H5N1 (low path) EC50
Dengue Virus = test: Antiviral activity, Dengue Virus; format: cell-based
West Nile Virus = test: Antiviral activity, West Nile Virus; format: cell-based; conditions: read-out: West Nile Virus EC50
Influenza A H1N1 = test: Antiviral activity, Influenza A H1N1; format: cell-based
RSV = test: Antiviral activity, RSV; format: cell-based; conditions: human respiratory syncytial virus
Influenza A H3N2 = test: Antiviral activity, Influenza A H3N2; format: cell-based
CHIK Virus = test: Antiviral activity, CHIK Virus; format: cell-based; conditions: Chikungunya virus, read-out: CHIK Virus EC50
VEEV = test: microbe, parasite or virus in culture; format: cell-based; conditions: Venezuelan equine encephalitis virus, read-out: VEEV EC50
Influenza B = test: Antiviral activity, Influenza B; format: cell-based
[2] = Cytotoxicity panel, HepG2; conditions: human, HepG2 cells
[3] = Cytotoxicity panel, Huh-7; conditions: human, Huh-7 cells, Cytotoxicity (CC50 uM) Huh-7, Huh-7
[4] = Cytotoxicity panel, BxPC3; conditions: human, BxPC3 cells
[5] = Toxicity in Huh-7 cells (Dengue assay); conditions: human, Huh-7 cells
[6] = Toxicity in Vero cells (Dengue assay); conditions: African green monkey
[7] = Cellular toxicity in parallel with HCV replicon assay (XTT); conditions: human
Cytotoxicity panel, H9c = format: cell-based; conditions: rat, H9c cells
Huh-7 = test: Cytotoxicity panel, Huh-7; conditions: read-out: Cytotoxicity (CC50 uM) Huh-7; Huh-7
[8] = Cytotoxicity in GT1b replicon cells; format: cell-based
Cytotoxicity panel, CEM = conditions: human, CEM cells, Cytotoxicity (CC50 uM) CEM
[9] = Cytotoxicity panel, IEC-6; format: cell-based; conditions: rat, IEC-6 cells
Cytotoxicity panel, A204 = format: cell-based; conditions: human, A204 cells
[10] = Influenza A virus, H1N1; read-out: Influenza A H1N1 EC50
[11] = Influenza A virus, H3N2; read-out: Influenza A H3N2 EC50
[12] = Influenza B virus; read-out: Influenza B EC50

Row | SMILES | EC50 (RVFV) [µg/mL] | pEC50 (SARS) | pEC50 (Measles) | EC50 (Tacaribe Virus) [µg/mL] | pEC50 [1] | EC50 (Dengue Virus) [µg/mL] | EC50 (West Nile Virus) [µg/mL] | pEC50 (Influenza A H1N1; [10]) | pEC50 (RSV) | pEC50 (Influenza A H3N2; [11]) | EC50 (CHIK Virus) [µg/mL] | EC50 (VEEV) [µg/mL] | pEC50 (Influenza B; [12]) | CC50 [2] [µM] | other results
1 | CNc1ccn([C@@H]2O[C@H](CO)C(O)[C@@H]2F)c(=O)n1 (stereo partly drawn) [EFVX-01853] | > 100 | < 4.00 | < 4.00 | > 100 | < 4.00 | > 100 | > 100 | < 4.00 | < 4.00 | < 4.00 | > 100 | > 100 | < 4.00 | – | –
2 | CN(C)c1ccn([C@@H]2O[C@H](CO)C(O)[C@@H]2F)c(=O)n1 (stereo partly drawn) [EFVX-01854] | > 100 | < 4.00 | < 4.00 | > 100 | < 4.00 | > 100 | > 100 | < 4.00 | < 4.00 | < 4.00 | > 100 | > 100 | < 4.00 | – | –
3 | Cc1cn([C@@H]2O[C@H](CO)C(O)[C@@H]2F)c(=O)nc1N (stereo partly drawn) [EFVX-01855] | > 100 | < 4.00 | < 4.00 | > 100 | < 4.00 | > 100 | > 100 | < 4.00 | < 4.00 | < 4.00 | > 100 | > 100 | < 4.00 | – | –
4 | Nc1nc(=O)n([C@@H]2O[C@H](CO)C(O)[C@@H]2F)cc1CO (stereo partly drawn) [EFVX-01856] | > 100 | < 4.00 | < 4.00 | > 100 | < 4.00 | > 100 | > 100 | < 4.00 | < 4.00 | < 4.00 | > 100 | > 100 | < 4.00 | – | –
5 | Nc1ccn([C@@H]2O[C@H](CO)C(O)[C@@H]2F)c(=S)n1 (stereo partly drawn) [EFVX-01857] | > 100 | < 4.06 | < 4.00 | > 100 | < 4.00 | > 100 | > 100 | – | < 4.00 | – | > 100 | > 100 | < 4.00 | – | CC50 (in vitro): 87 µM; pEC50 (Influenza A H1N1; Influenza A virus, H1N1, read-out: Influenza A H1N1 EC50): < 4.00; pEC50 (Influenza A H3N2; Influenza A virus, H3N2, read-out: Influenza A H3N2 EC50): < 4.00
6 | CC(C)OP1(=O)OC[C@H]2O[C@@H](n3ccc(=O)[nH]c3=O)C(F)[C@H]2O1 (stereo partly drawn) [EFVX- 01841] | – | 4.15 | – | – | < 4.00 | – | – | < 4.00 | < 4.00 | < 4.00 | – | – | – | – | CC50 (in vitro): > 89 µM; pEC50 (Influenza B; Influenza B virus, read-out: Influenza B EC50): < 4.00
7 | C[C@@]1(O)C(O)[C@@H](CO)O[C@H]1n1ccc(=O)[nH]c1=S (stereo partly drawn) [ENUC-01850-1] | – | – | – | – | – | – | – | – | – | – | – | – | – | > 400 | CC50 [3]: > 100 µM; CC50 [4]: > 100 µM
8 | C[C@@]1(O)C(O)[C@@H](CO)O[C@H]1n1ccc(=O)[nH]c1=S (stereo partly drawn) [ENUC-01850] | – | – | – | – | – | – | – | – | – | – | – | – | – | – | CC50 [5]: > 100 µM; CC50 [6]: > 100 µM
9 | O=c1[nH]c(=S)ccn1[C@@H]1O[C@H](CO)C(O)[C@@H]1O (stereo partly drawn) [ENUC-01893-1] | – | – | – | – | – | – | – | – | – | – | – | – | – | – | CC50 at 72 h [7]: 45.7 µM
10 | CC(C)OC(=O)[C@H](C)NP(=O)(OC[C@H]1O[C@@H](n2ccc(=O)[nH]c2=S)[C@](C)(O)C1O)Oc1ccccc1 (stereo partly drawn) [ENUC-01911-1] | – | – | – | – | – | – | – | – | – | – | – | – | – | > 400 | CC50 (Cytotoxicity panel, H9c): > 200 µM; CC50 [3]: > 400 µM; CC50 [4]: > 300 µM
11 | CC(C)OC(=O)[C@H](C)NP(=O)(OC[C@H]1O[C@@H](n2ccc(=O)[nH]c2=S)[C@](C)(O)C1O)Oc1ccccc1 (stereo partly drawn) [ENUC-01911-2] | – | – | – | – | – | – | – | – | – | – | – | – | – | – | CC50 (Huh-7): > 400 µM; CC50 [8]: > 10 µM
12 | C[C@@]1(O)C(O)[C@@H](CO)O[C@H]1n1ccc(=S)[nH]c1=O (stereo partly drawn) [ENUC-01916-1] | – | – | – | – | – | – | – | – | – | – | – | – | – | > 400 | –
13 | CC(C)OC(=O)[C@H](C)NP(=O)(OC[C@H]1O[C@@H](n2ccc(=S)[nH]c2=O)[C@](C)(O)C1O)Oc1ccccc1 (stereo partly drawn) [ENUC-01920-1] | – | – | – | – | – | – | – | – | – | – | – | – | – | > 400 | CC50 [3]: > 400 µM
14 | CC(C)OC(=O)[C@H](C)NP(=O)(OC[C@H]1O[C@@H](n2ccc(=S)[nH]c2=O)[C@](C)(F)C1O)Oc1ccccc1 (stereo partly drawn) [ENUC-01943-1] | – | – | – | – | – | – | – | – | – | – | – | – | – | 199 | CC50 (Cytotoxicity panel, CEM): 136 µM; CC50 [9]: > 400 µM; CC50 [4]: > 300 µM; CC50 (Cytotoxicity panel, A204): > 200 µM
15 | C[C@@]1(F)C(O)[C@@H](CO)O[C@H]1n1ccc(=S)[nH]c1=O (stereo partly drawn) [ENUC-01946-1] | – | – | – | – | – | – | – | – | – | – | – | – | – | > 400 | CC50 (Cytotoxicity panel, CEM): > 400 µM; CC50 [3]: > 400 µM
